This experiment addresses T1, full-length beta-Catenin (Uniprot ID P35222) (Homo sapiens, UniProt P35222).
T1 construct: 10 nM full-length beta-Catenin (Uniprot ID P35222)
T1 sequence (P35222 1-781): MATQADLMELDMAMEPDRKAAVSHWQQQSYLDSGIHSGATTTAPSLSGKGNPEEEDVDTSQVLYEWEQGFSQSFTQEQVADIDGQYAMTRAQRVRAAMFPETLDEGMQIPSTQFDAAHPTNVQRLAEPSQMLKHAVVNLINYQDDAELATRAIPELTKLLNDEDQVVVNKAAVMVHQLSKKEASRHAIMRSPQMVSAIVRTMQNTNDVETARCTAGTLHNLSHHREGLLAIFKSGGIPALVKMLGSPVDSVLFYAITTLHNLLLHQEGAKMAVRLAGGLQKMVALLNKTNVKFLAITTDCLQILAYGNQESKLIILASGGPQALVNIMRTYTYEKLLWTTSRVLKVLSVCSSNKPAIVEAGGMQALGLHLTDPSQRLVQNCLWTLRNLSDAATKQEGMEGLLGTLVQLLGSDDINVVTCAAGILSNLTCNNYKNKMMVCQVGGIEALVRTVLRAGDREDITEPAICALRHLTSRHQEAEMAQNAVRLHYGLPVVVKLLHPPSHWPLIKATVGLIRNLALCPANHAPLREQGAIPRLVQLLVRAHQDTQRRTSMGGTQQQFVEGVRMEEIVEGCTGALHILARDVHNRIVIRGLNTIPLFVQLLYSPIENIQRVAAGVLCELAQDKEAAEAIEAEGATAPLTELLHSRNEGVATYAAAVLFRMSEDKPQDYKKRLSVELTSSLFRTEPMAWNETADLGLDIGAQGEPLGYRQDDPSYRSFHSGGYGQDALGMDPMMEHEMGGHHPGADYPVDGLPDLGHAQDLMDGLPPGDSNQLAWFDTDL
In words: Fluorescence polarization IC50 (beta-catenin / 5FAM-TCF4 10-53 competition). The format is binding. (In general: Polarisation of emitted light reports the rotation of a fluorescent probe.)

[1] abbreviates: beta-Catenin FP IC50, fluorescence polarization.
Setting [2] is: fluorescence polarization, read-out: beta-Catenin FP IC50.
Where [3] appears, read: fluorescence polarization, beta-catenin, read-out: FP EC50.

The results in this text go back to patent US20240116985A1, “STAPLED PEPTIDES AND METHODS THEREOF” (priority 2020, published 2024).

Structures are written as SMILES. pIC50: −log10 of the molar value. Like-named read-outs stand apart in the source and are kept apart here.

Under setting [1], `CC(=O)N1CCC[C@]12CC=CCCCC1(CCCC=CCCCOC(=O)N3CC[C@@](C(=O)N[C@@H](Cc4ccccc4Cl)C(=O)N[C@@H](Cc4csc5ccccc45)C(=O)N[C@@H](CC(C)C)C(N)=O)(C3)NC(=O)[C@H](CC(C)C)NC(=O)[C@H](Cc3ccccc3)NC(=O)[C@H](C)NC(=O)[C@H](C)NC(=O)[C@H](CC(=O)O)NC(=O)[C@H](CC(=O)O)NC1=O)NC(=O)[C@H](CO)NC(=O)[C@H](CC(=O)O)NC2=O` (stereo partly drawn) [I-1423, Ac-PL3-Asp-Ser-B5-Asp-Asp-Ala-Ala-Phe-Leu-PyrS2-2C1F-BztA-Leu-NH2] had a pIC50 of 6.41.

For `CC(=O)N1CCC[C@]12CC=CCCCC1(CCCC=CCCCOC(=O)N3CC[C@@](C(=O)N[C@@H](Cc4ccccc4Cl)C(=O)N[C@@H](Cc4csc5ccccc45)C(=O)N[C@@H](CC(C)C)C(N)=O)(C3)NC(=O)[C@H](CC(C)C)NC(=O)[C@H](Cc3ccccc3)NC(=O)[C@H](C)NC(=O)[C@H](C)NC(=O)[C@H](CC(=O)O)NC(=O)[C@H](CC(=O)O)NC1=O)NC(=O)[C@H]([C@@H](C)O)NC(=O)[C@H](CC(=O)O)NC2=O` (stereo partly drawn) [I-1424, Ac-PL3-Asp-Thr-B5-Asp-Asp-Ala-Ala-Phe-Leu-PyrS2-2C1F-BztA-Leu-NH2], the pIC50 under setting [1] is 6.63.

Turning to `CC(=O)N1CCC[C@]12CC=CCCCC1(CCCC=CCCCOC(=O)N3CC[C@@](C(=O)N[C@@H](Cc4ccsc4)C(=O)N[C@@H](Cc4cccc(F)c4F)C(=O)N[C@@H](CCC(N)=O)C(N)=O)(C3)NC(=O)[C@H](CC(C)C)NC(=O)[C@H](Cc3ccccc3)NC(=O)[C@H](C)NC(=O)[C@H](C)NC(=O)[C@H](CC(=O)O)NC(=O)[C@H](CC(=O)O)NC1=O)NC(=O)[C@H](CC(C)(C)C)NC(=O)[C@H](CC(=O)O)NC2=O` (stereo partly drawn) [I-1425, Ac-PL3-Asp-Npg-B5-Asp-Asp-Ala-Ala-Phe-Leu-PyrS2-3Thi-23FF-Gln-NH2], the pIC50 under setting [2] was 6.62.

As to `CC(=O)N1CCC[C@]12CC=CCCCC1(CCCC=CCCCOC(=O)N3CC[C@@](C(=O)N[C@@H](Cc4ccsc4)C(=O)N[C@@H](Cc4cccc(F)c4F)C(=O)N[C@@H](CO)C(N)=O)(C3)NC(=O)[C@H](CC(C)C)NC(=O)[C@H](Cc3ccccc3)NC(=O)[C@H](C)NC(=O)[C@H](C)NC(=O)[C@H](CC(=O)O)NC(=O)[C@H](CC(=O)O)NC1=O)NC(=O)[C@H](CC(C)(C)C)NC(=O)[C@H](CC(=O)O)NC2=O` (stereo partly drawn) [I-1426, Ac-PL3-Asp-Npg-B5-Asp-Asp-Ala-Ala-Phe-Leu-PyrS2-3Thi-23FF-Ser-NH2], under setting [2], the pIC50 is 6.69.

As to `CC(=O)N1CCC[C@]12CC=CCCCC1(CCCC=CCCCOC(=O)N3CC[C@@](C(=O)N[C@@H](Cc4ccsc4)C(=O)N[C@@H](Cc4ccc(F)c(F)c4)C(=O)N[C@@H](CCC(N)=O)C(N)=O)(C3)NC(=O)[C@H](CC(C)C)NC(=O)[C@H](Cc3ccccc3)NC(=O)[C@H](C)NC(=O)[C@H](C)NC(=O)[C@H](CC(=O)O)NC(=O)[C@H](CC(=O)O)NC1=O)NC(=O)[C@H](CC(C)(C)C)NC(=O)[C@H](CC(=O)O)NC2=O` (stereo partly drawn) [I-1427, Ac-PL3-Asp-Npg-B5-Asp-Asp-Ala-Ala-Phe-Leu-PyrS2-3Thi-34FF-Gln-NH2], the pIC50 under setting [2] was 7.48.

As to `CC(=O)N1CCC[C@]12CC=CCCCC1(CCCC=CCCCOC(=O)N3CC[C@@](C(=O)N[C@@H](Cc4ccsc4)C(=O)N[C@@H](Cc4ccc(F)c(F)c4)C(=O)N[C@@H](CO)C(N)=O)(C3)NC(=O)[C@H](CC(C)C)NC(=O)[C@H](Cc3ccccc3)NC(=O)[C@H](C)NC(=O)[C@H](C)NC(=O)[C@H](CC(=O)O)NC(=O)[C@H](CC(=O)O)NC1=O)NC(=O)[C@H](CC(C)(C)C)NC(=O)[C@H](CC(=O)O)NC2=O` (stereo partly drawn) [I-1428, Ac-PL3-Asp-Npg-B5-Asp-Asp-Ala-Ala-Phe-Leu-PyrS2-3Thi-34FF-Ser-NH2], under setting [2], the pIC50 was 7.39.

Take `CC(=O)N1CCC[C@]12CC=CCCCC1(CCCC=CCCCOC(=O)N3CC[C@@](C(=O)N[C@@H](Cc4ccsc4)C(=O)N[C@@H](Cc4cn(C)c5ccccc45)C(=O)N[C@@H](CCC(N)=O)C(N)=O)(C3)NC(=O)[C@H](CC(C)C)NC(=O)[C@H](Cc3ccccc3)NC(=O)[C@H](C)NC(=O)[C@H](C)NC(=O)[C@H](CC(=O)O)NC(=O)[C@H](CC(=O)O)NC1=O)NC(=O)[C@H](CC(C)(C)C)NC(=O)[C@H](CC(=O)O)NC2=O` (stereo partly drawn) [I-1433, Ac-PL3-Asp-Npg-B5-Asp-Asp-Ala-Ala-Phe-Leu-PyrS2-3Thi-1MeW-Gln-NH2]: the pIC50 under setting [2] was 7.15.

Take `CC(=O)N1CCC[C@]12CC=CCCCC1(CCCC=CCCCOC(=O)N3CC[C@@](C(=O)N[C@@H](Cc4ccsc4)C(=O)N[C@@H](Cc4cn(C)c5ccccc45)C(=O)N[C@@H](CO)C(N)=O)(C3)NC(=O)[C@H](CC(C)C)NC(=O)[C@H](Cc3ccccc3)NC(=O)[C@H](C)NC(=O)[C@H](C)NC(=O)[C@H](CC(=O)O)NC(=O)[C@H](CC(=O)O)NC1=O)NC(=O)[C@H](CC(C)(C)C)NC(=O)[C@H](CC(=O)O)NC2=O` (stereo partly drawn) [I-1434, Ac-PL3-Asp-Npg-B5-Asp-Asp-Ala-Ala-Phe-Leu-PyrS2-3Thi-1MeW-Ser-NH2]: under setting [2], the pIC50 is 7.08.

Take `CC(=O)N1CCC[C@]12CC=CCCCC1(CCCC=CCCCOC(=O)N3CC[C@@](C(=O)N[C@@H](Cc4ccsc4)C(=O)N[C@@H](Cc4c[nH]c5cc(Cl)ccc45)C(=O)N[C@@H](CCC(N)=O)C(N)=O)(C3)NC(=O)[C@H](CC(C)C)NC(=O)[C@H](Cc3ccccc3)NC(=O)[C@H](C)NC(=O)[C@H](C)NC(=O)[C@H](CC(=O)O)NC(=O)[C@H](CC(=O)O)NC1=O)NC(=O)[C@H](CC(C)(C)C)NC(=O)[C@H](CC(=O)O)NC2=O` (stereo partly drawn) [I-1435, Ac-PL3-Asp-Npg-B5-Asp-Asp-Ala-Ala-Phe-Leu-PyrS2-3Thi-6C1W-Gln-NH2]: under setting [2], the pIC50 is 7.05.

Regarding `CC(=O)N1CCC[C@]12CC=CCCCC1(CCCC=CCCCOC(=O)N3CC[C@@](C(=O)N[C@@H](Cc4ccsc4)C(=O)N[C@@H](Cc4c[nH]c5cc(Cl)ccc45)C(=O)N[C@@H](CO)C(N)=O)(C3)NC(=O)[C@H](CC(C)C)NC(=O)[C@H](Cc3ccccc3)NC(=O)[C@H](C)NC(=O)[C@H](C)NC(=O)[C@H](CC(=O)O)NC(=O)[C@H](CC(=O)O)NC1=O)NC(=O)[C@H](CC(C)(C)C)NC(=O)[C@H](CC(=O)O)NC2=O` (stereo partly drawn) [I-1436, Ac-PL3-Asp-Npg-B5-Asp-Asp-Ala-Ala-Phe-Leu-PyrS2-3Thi-6C1W-Ser-NH2], the pIC50 under setting [2] is 6.92.

Take `CC(=O)N1CCC[C@]12CC=CCCCC1(CCCC=CCCCOC(=O)N3CC[C@@](C(=O)N[C@@H](Cc4ccsc4)C(=O)N[C@@H](Cc4csc5ccccc45)C(=O)N[C@@H](CCC(N)=O)C(N)=O)(C3)NC(=O)[C@H](CC(C)C)NC(=O)[C@H](Cc3ccccc3)NC(=O)[C@H](C)NC(=O)[C@H](C)NC(=O)[C@H](Cc3ccccc3)NC(=O)[C@H](CC(=O)O)NC1=O)NC(=O)[C@H](CC(C)(C)C)NC(=O)[C@H](CC(=O)O)NC2=O` (stereo partly drawn) [I-1441, Ac-PL3-Asp-Npg-B5-Asp-Phe-Ala-Ala-Phe-Leu-PyrS2-3Thi-BztA-Gln-NH2]: the pIC50 under setting [2] is 6.49.

On to `CC(=O)N1CCC[C@]12CC=CCCCC1(CCCC=CCCCOC(=O)N3CC[C@@](C(=O)N[C@@H](Cc4ccsc4)C(=O)N[C@@H](Cc4csc5ccccc45)C(=O)N[C@@H](CCC(N)=O)C(N)=O)(C3)NC(=O)[C@H](CC(C)C)NC(=O)[C@H](Cc3ccccc3)NC(=O)[C@H](C)NC(=O)[C@H](C)NC(=O)[C@H](CC(C)C)NC(=O)[C@H](CC(=O)O)NC1=O)NC(=O)[C@H](CC(C)(C)C)NC(=O)[C@H](CC(=O)O)NC2=O` (stereo partly drawn) [I-1444, Ac-PL3-Asp-Npg-B5-Asp-Leu-Ala-Ala-Phe-Leu-PyrS2-3Thi-BztA-Gln-NH2], for which, under setting [2], the pIC50 is 5.18.

Turning to `CC(=O)N1CCC[C@]12CC=CCCCC1(CCCC=CCCCOC(=O)N3CC[C@@](C(=O)N[C@@H](Cc4ccccc4Cl)C(=O)N[C@@H](Cc4csc5ccccc45)C(=O)N[C@@H](CCC(N)=O)C(N)=O)(C3)NC(=O)[C@H](CC(N)=O)NC(=O)[C@H](Cc3ccccc3)NC(=O)[C@H](C)NC(=O)[C@H](C)NC(=O)[C@H](CN(CC(=O)O)Cc3c(F)c(F)c(F)c(F)c3F)NC(=O)[C@H](CC(=O)O)NC1=O)NC(=O)[C@H](CC(C)(C)C)NC(=O)[C@H](CC(=O)O)NC2=O` (stereo partly drawn) [I-1448, Ac-PL3-Asp-Npg-B5-Asp-[Pfbn]GA-Ala-Ala-Phe-Asn-PyrS2-2C1F-BztA-Gln-NH2], the pIC50 was 7.70 under setting [3] and 7.70 under setting [2].

On to `CC(=O)N1CCC[C@]12CC=CCCCC1(CCCC=CCCCOC(=O)N3CC[C@@](C(=O)N[C@@H](Cc4ccccc4Cl)C(=O)N[C@@H](Cc4csc5ccccc45)C(=O)N[C@@H](CCC(N)=O)C(N)=O)(C3)NC(=O)[C@H](CC(N)=O)NC(=O)[C@H](Cc3ccccc3)NC(=O)[C@H](C)NC(=O)[C@H](C)NC(=O)[C@H](CN(CC(=O)O)Cc3c(F)c(F)c(F)c(F)c3F)NC(=O)[C@H](CC(=O)O)NC1=O)NC(=O)[C@H](CC(C)(C)C)NC(=O)[C@H](CC(=O)O)NC2=O` (stereo partly drawn) [I-1450, Ac-PL3-Asp-Npg-B5-Asp-[Pfbn]GA-Ala-Ala-Phe-Asn-PyrS2-2C1F-BztA-Gln-NH2], for which the pIC50 is, setting by setting: under setting [3], 7.96; under setting [2], 7.96.
